For test [1], the system named is GM3 expression on the cell surface, B16 mouse melanoma cells. Kind of test: cell based phenotypic assay, cell surface GM3 by antibody mediated immunofluorescence, B16 (GM3 B16 IC50). The conditions noted are these: Mus musculus, 50% inhibition of GM3 expression on the cell surface. In short, it runs like this: (§1)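 B16 mouse and C32 human melanoma cells; cell-surface GM3 measured by antibody-mediated immunofluorescence, giving IC50.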

The test system of test [2] is GM3 expression on the cell surface, C32 human melanoma cells. In words: cell based phenotypic assay, cell surface GM3 by antibody mediated immunofluorescence, C32 (GM3 C32 IC50). The note with it: Homo sapiens, 50% inhibition of GM3 expression on the cell surface. In short, it runs like this: as §1
Test [3] deals with T1, glucosylceramide synthase (Homo sapiens, UniProt Q16739).
T1 construct: Microsomes were isolated from A375 human melanoma cells; endogenous in cells; host or cells: A375 human melanoma cells (microsomal fraction, 100,000 g pellet)
T1 sequence (Q16739 1-394): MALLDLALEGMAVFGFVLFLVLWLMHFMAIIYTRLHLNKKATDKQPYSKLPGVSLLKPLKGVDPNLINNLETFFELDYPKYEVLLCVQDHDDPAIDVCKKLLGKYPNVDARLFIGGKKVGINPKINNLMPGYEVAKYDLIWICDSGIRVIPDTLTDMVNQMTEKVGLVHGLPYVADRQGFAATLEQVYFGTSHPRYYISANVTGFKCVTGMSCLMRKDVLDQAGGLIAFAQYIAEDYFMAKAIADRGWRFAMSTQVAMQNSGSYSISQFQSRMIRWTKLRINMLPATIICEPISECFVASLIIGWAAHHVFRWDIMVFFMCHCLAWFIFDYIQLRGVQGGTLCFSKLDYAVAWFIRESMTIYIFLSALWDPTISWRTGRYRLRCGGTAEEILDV
Kind of test: microsomal assay measuring conversion of ceramide to glucosylceramide by HPLC (GCS IC50). The note with it: concentration causing 50% inhibition of glucosylceramide synthase activity. In kind it is biochemical. The gist of the method: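 Microsomal preparation assayed for glucosylceramide synthase by direct HPLC measurement of ceramide conversion to glucosylceramide. GCS IC50 is the compound concentration giving 50% inhibition of enzyme activity.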

Another test has as its system C32 human melanoma cells. In words: cell viability in the C32 cell-based assay (Viability, C32 IC50). The note with it: concentration causing 50% cell death, values greater than 10 represent a lack of cell death. The gist of the method: (§2)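 Both lines undergo the phenotypic GM3 assay, and viability is recorded from that same cell-based run.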
The test system of the next test is B16 mouse melanoma cells. In words: cell viability in the B16 cell-based assay (Viability, B16 IC50). In short, it runs like this: as §2
Setting [4] is: B16 mouse melanoma cells, read-out: GM3 B16 IC50.
[5] abbreviates: C32 human melanoma cells, read-out: GM3 C32 IC50.
The mark [6] stands for this setting: Homo sapiens, C32, C32 cells, read-out: Viability, C32 IC50.
The mark [7] stands for this setting: Mus musculus, B16, B16 cells, concentration causing 50% cell death, values greater than 10 represent a lack of cell death, read-out: Viability, B16 IC50.
Setting [8] is: read-out: GM3 B16 IC50, B16 mouse melanoma cells.
Setting [9] is: read-out: GM3 C32 IC50, C32 human melanoma cells.
Setting [10] is: Homo sapiens, C32, read-out: Viability, C32 IC50, C32 cells.
The mark [11] stands for this setting: Mus musculus, B16, read-out: Viability, B16 IC50.
Setting [12] is: read-out: Viability, C32 IC50, C32 cells.
Where [13] appears, read: read-out: Viability, B16 IC50, B16 cells, concentration causing 50% cell death, values greater than 10 represent a lack of cell death.

The values that follow come from patent publication US12060349B2, “Glucosylceramide synthase inhibitors” (Genzyme Corporation, priority 2012, dated 2024).

As usually defined, the IC50 is the concentration that inhibits the measured activity by half.

Structures are written as SMILES. Like-named read-outs stand apart in the source and are kept apart here.

Turning to `COCCCOc1cnc(-c2cccc(C(C)(C)NC(=O)OC3CCN4CCC3CC4)c2)cn1` (stereo not drawn) [Example 316, 1-Azabicyclo[3.2.2]nonan-4-yl (2-(3-(5-(3-methoxypropoxy)pyrazin-2-yl)phenyl)propan-2-yl)carbamate], the IC50 in test [1] (setting [4]) was 152 nM; in test [2] (setting [5]) it was 4.39 nM; in test [3], 28 nM; with C32 human melanoma cells (setting [6]), at least 10000 nM; with B16 mouse melanoma cells (setting [7]), at least 10000 nM.

`COCCCOc1cnc(-c2cccc(C(C)(C)NC(=O)N3CCN4CCC3CC4)c2)cn1` [Example 317, N-(2-(3-(5-(3-Methoxypropoxy)pyrazin-2-yl)phenyl)propan-2-yl)-1,4-diazabicyclo[3.2.2]nonane-4-carboxamide]: the IC50 was 656 nM in test [1] (setting [4]); 29.1 nM in test [2] (setting [5]); 295 nM in test [3]; 1000 nM in the test on C32 human melanoma cells (setting [6]); at least 10000 nM in the test on B16 mouse melanoma cells (setting [7]).

Turning to `CCOc1ccc(-c2cccc(C(C)(C)NC(=O)OC3CCN4CCC3CC4)c2)nn1` (stereo not drawn) [Example 319, 1-Azabicyclo[3.2.2]nonan-4-yl (2-(3-(6-ethoxypyridazin-3-yl)phenyl)propan-2-yl)carbamate], the IC50 in test [1] (setting [4]) is 121 nM; in test [2] (setting [5]) it was 8.04 nM; in test [3], 75 nM; in the test on C32 human melanoma cells (setting [6]), at least 10000 nM; in the test on B16 mouse melanoma cells (setting [7]), at least 10000 nM.

`COCCCOc1cnc(-c2ccc(C(C)(C)NC(=O)OC3CN4CCC3CC4)cc2)cn1` (stereo not drawn) [Example 320, Quinuclidin-3-yl (2-(4-(5-(3-methoxypropoxy)pyrazin-2-yl)phenyl)propan-2-yl)carbamate]: the IC50 in test [1] (setting [8]) is 201 nM; in test [2] (setting [9]), 11.2 nM; in test [3] it was 131 nM; in the test with C32 human melanoma cells (setting [10]), 1000 nM; in the test with B16 mouse melanoma cells (setting [11]) it was at least 10000 nM.

Regarding `COCCCOc1cnc(-c2ccc(C(C)(C)NC(=O)OC3CCN4CCC3CC4)cc2)cn1` (stereo not drawn) [Example 321, 1-Azabicyclo[3.2.2]nonan-4-yl (2-(4-(5-(3-methoxypropoxy)pyrazin-2-yl)phenyl)propan-2-yl)carbamate], the IC50 in test [1] (setting [4]) is 108 nM; in test [2] (setting [5]), 6.39 nM; in test [3], 46.1 nM; with C32 human melanoma cells (setting [6]) it was 1000 nM; in the test with B16 mouse melanoma cells (setting [7]) it was at least 10000 nM.

For the compound `COCCCOc1cnc(-c2ccc(C(C)(C)NC(=O)N3CCN4CCC3CC4)cc2)cn1` [Example 322, N-(2-(4-(5-(3-methoxypropoxy)pyrazin-2-yl)phenyl)propan-2-yl)-1,4-diazabicyclo[3.2.2]nonane-4-carboxamide], the concentration for half-maximal inhibition (IC50) in test [1] (setting [4]) was 1440 nM; in test [2] (setting [5]) it was 99.9 nM; in test [3] it was 1070 nM; in the test with C32 human melanoma cells (setting [6]), 1000 nM; in the test on B16 mouse melanoma cells (setting [7]) it was at least 10000 nM.

With `COCCCOc1cnc(-c2cccc(C(C)(C)NC(=O)OC3CN4CCC3CC4)c2)nc1` (stereo not drawn) [Example 323, Quinuclidin-3-yl (2-(3-(5-(3-methoxypropoxy)pyrimidin-2-yl)phenyl)propan-2-yl)carbamate], the 50% inhibitory concentration (IC50) was 508 nM in test [1] (setting [8]); 48.8 nM in test [2] (setting [9]); 1160 nM in test [3]; 1000 nM with C32 human melanoma cells (setting [10]); at least 10000 nM in the test with B16 mouse melanoma cells (setting [11]).

On to `COCCCOc1cnc(-c2cccc(C(C)(C)NC(=O)OC3CCN4CCC3CC4)c2)nc1` (stereo not drawn) [Example 324, 1-Azabicyclo[3.2.2]nonan-4-yl (2-(3-(5-(3-methoxypropoxy)pyrimidin-2-yl)phenyl)propan-2-yl)carbamate], for which the half-inhibitory concentration (IC50) in test [1] (setting [4]) is 157 nM; in test [2] (setting [5]), 8.49 nM; in test [3], 96.9 nM; in the test with C32 human melanoma cells (setting [6]) it was 1000 nM; in the test on B16 mouse melanoma cells (setting [7]), at least 10000 nM.

For `CCC1(NC(=O)NC(C)(C)C#Cc2ccc(CCOC)cc2)CN2CCC1CC2` (stereo not drawn) [Example 325, 1-(3-Ethylquinuclidin-3-yl)-3-(4-(4-(2-methoxyethyl)phenyl)-2-methylbut-3-yn-2-yl)urea], the 50% inhibitory concentration (IC50) was 399 nM in test [1] (setting [4]); 7.94 nM in test [2] (setting [5]); 92 nM in test [3]; at least 10000 nM with C32 human melanoma cells (setting [6]); at least 10000 nM with B16 mouse melanoma cells (setting [7]).

Consider `CCCC1(NC(=O)NC(C)(C)C#Cc2ccc(CCOC)cc2)CN2CCC1CC2` (stereo not drawn) [Example 326, 1-(4-(4-(2-Methoxyethyl)phenyl)-2-methylbut-3-yn-2-yl)-3-(3-propylquinuclidin-3-yl)urea], for which the IC50 is 123 nM in test [1] (setting [4]); 4.29 nM in test [2] (setting [5]); 26.6 nM in test [3]; 3160 nM in the test on C32 human melanoma cells (setting [6]); 3160 nM with B16 mouse melanoma cells (setting [7]).

For the compound `CCC1(NC(=O)NC(C)(C)C#Cc2ccc(COC)cc2)CN2CCC1CC2` (stereo not drawn) [Example 327, 1-(3-Ethylquinuclidin-3-yl)-3-(4-(4-(methoxymethyl)phenyl)-2-methylbut-3-yn-2-yl)urea], the half-maximal inhibitory concentration (IC50) in test [1] (setting [4]) was 343 nM; in test [2] (setting [5]) it was 14.7 nM; in test [3], 96.2 nM; with C32 human melanoma cells (setting [6]), at least 10000 nM; in the test on B16 mouse melanoma cells (setting [7]), at least 10000 nM.

With `CCCC1(NC(=O)NC(C)(C)C#Cc2ccc(COC)cc2)CN2CCC1CC2` (stereo not drawn) [Example 328, 1-(4-(4-(Methoxymethyl)phenyl)-2-methylbut-3-yn-2-yl)-3-(3-propylquinuclidin-3-yl)urea], the IC50 worked out at 115 nM in test [1] (setting [4]); 3.32 nM in test [2] (setting [5]); 25.1 nM in test [3]; 3160 nM in the test on C32 human melanoma cells (setting [6]); 3160 nM in the test on B16 mouse melanoma cells (setting [7]).

Consider `COCCOc1ccc(C#CC(C)(C)NC(=O)OC2CN3CCC2CC3)cc1` (stereo not drawn) [Example 329, Quinuclidin-3-yl (4-(4-(2-methoxyethoxy)phenyl)-2-methylbut-3-yn-2-yl)carbamate], for which the 50% inhibitory concentration (IC50) in test [1] (setting [8]) was 2700 nM; in test [2] (setting [9]), 284 nM; in test [3], 3140 nM; with C32 human melanoma cells (setting [12]), at least 10000 nM; in the test on B16 mouse melanoma cells (setting [13]), at least 10000 nM.

In the case of `COCCCOc1ccc(C#CC(C)(C)NC(=O)OC2CN3CCC2CC3)cc1` (stereo not drawn) [Example 331, Quinuclidin-3-yl (4-(4-(3-methoxypropoxy)phenyl)-2-methylbut-3-yn-2-yl)carbamate], the IC50 is 1760 nM in test [1] (setting [8]); 118 nM in test [2] (setting [9]); 1330 nM in test [3]; at least 10000 nM with C32 human melanoma cells (setting [12]); at least 10000 nM in the test with B16 mouse melanoma cells (setting [13]).

With `CCC1(NC(=O)NC(C)(C)C#Cc2ccc(COCc3cccnc3)cc2)CN2CCC1CC2` (stereo not drawn) [Example 332, 1-(3-Ethylquinuclidin-3-yl)-3-(2-methyl-4-(4-((pyridin-3-ylmethoxy)methyl)phenyl)but-3-yn-2-yl)urea], the half-maximal inhibitory concentration (IC50) is 945 nM in test [1] (setting [4]); 15.5 nM in test [2] (setting [5]); 49.4 nM in test [3]; at least 10000 nM in the test with C32 human melanoma cells (setting [6]); at least 10000 nM with B16 mouse melanoma cells (setting [7]).

With `CCCC1(NC(=O)NC(C)(C)C#Cc2ccc(COCc3cccnc3)cc2)CN2CCC1CC2` (stereo not drawn) [Example 333, 1-(2-Methyl-4-(4-((pyridin-3-ylmethoxy)methyl)phenyl)but-3-yn-2-yl)-3-(3-propylquinuclidin-3-yl)urea], the half-inhibitory concentration (IC50) is 413 nM in test [1] (setting [4]); 6.18 nM in test [2] (setting [5]); 16.1 nM in test [3]; 3160 nM in the test with C32 human melanoma cells (setting [6]); at least 10000 nM in the test on B16 mouse melanoma cells (setting [7]).

As to `CC(C)(C)CCS(=O)(=O)c1ccc(C#CC(C)(C)NC(=O)OC2CN3CCC2CC3)cc1` (stereo not drawn) [Example 334, Quinuclidin-3-yl (4-(4-((3,3-dimethylbutyl)sulfonyl)phenyl)-2-methylbut-3-yn-2-yl)carbamate], the IC50 in test [1] (setting [8]) is 317 nM; in test [2] (setting [9]) it was 11.8 nM; in test [3] it was 80.2 nM; in the test on C32 human melanoma cells (setting [10]), at least 10000 nM; in the test with B16 mouse melanoma cells (setting [11]), 3280 nM.

In the case of `CC(C)(C)CCS(=O)(=O)c1ccc(C#CC(C)(C)NC(=O)OC2CCN3CCC2CC3)cc1` (stereo not drawn) [Example 335, 1-Azabicyclo[3.2.2]nonan-4-yl (4-(4-((3,3-dimethylbutyl)sulfonyl)phenyl)-2-methylbut-3-yn-2-yl)carbamate], the half-inhibitory concentration (IC50) in test [1] (setting [4]) is 193 nM; in test [2] (setting [5]) it was 4.32 nM; in test [3] it was 14.6 nM; with C32 human melanoma cells (setting [6]), 1000 nM; with B16 mouse melanoma cells (setting [7]) it was 2150 nM.
